Source: US12084459B2, “2-(4-{1-[6-(4-isopropyl-phenyl)-imidazo[2,1-b][1,3,4]thiadiazol-2-yl]-piperidin-4-ylmethyl}-piperazin-1-yl)-ethanol and use thereof” (Urifer Ltd., priority 2020, dated 2024)

Legend:
[1] = system: metastatic pancreatic ductal adenocarcinoma Su.86.86 cancer cells; assay: viability / killing of Su.86.86 cells; assay type: cell-based; conditions: E266 versus E260; compound (I) as tartarate salt in 0.5% Tween-80; FIG. 4
Description: (§1) The compound (I), as tartarate salt was dissolved in 0.5% Tween-80 to affect the viability of several cell lines as follows.
(§2) The effect of the compound (I) (E266) on the growth profile of cancer cells which express Fer was tested. The cells that were tested were: the metastatic colon cancer cell line—SW620, the metastatic pancreatic ductal-adenocarcinoma SU.86.86 cancer cell-line—SU.86.86, the metastatic Triple Negative breast cancer cell line—MDA-MB-231, and the metastatic prostate cancer cell-line—PC3. The effect of the compound (I) (E266) on FS11 cells, a non malignant fibroblastic cell line, was also studied.

[2] = system: metastatic colon cancer SW620 cells; assay: viability / killing of SW620 cells; assay type: cell-based; conditions: E266 versus E260; compound (I) as tartarate salt in 0.5% Tween-80; FIG. 3
Description: as §1, §2

[3] = insolubility level in PBS/Polysorbate-80 (Tween 80) solution; assay type: physicochemical; conditions: 0.5 mM and 1 mM in PBS/Polysorbate-80 (Tween 80) solution at 25° C. (FIG. 1A, 1B)
normal Epithelial cells = assay: effect on normal epithelial cells; assay type: cell-based; conditions: FIG. 2
Description: Compound (I) was dissolved in 20% hydroxypropylcyclodextrane and the volume of administration (IP) was 10 ml/kg.

H358 derived xenografts = H358 derived xenografts in Nude mice; assay type: in vivo; conditions: 25 mg/kg daily intraperitoneal in 1% Tween 80, H358 xenografts, FIG. 7
From the text: In vivo activity of the E266 (compound (I) of the present application) compared to that of the E260 (EP 2401283) in H358 derived xenografts in immune-compromised (Nude) mice.
In order to compare the relative efficacy of E266 and E260 in inhibiting the development and progression of malignant tumors in-vivo, the activity in xenograft model in mice was examined for both compounds. H358 derived xenografts in immune-compromised were elicited in (Nude) mice. The H358 cells, which are metastatic bronchioloalveolar carcinoma (BAC)-non-small cell lung cancer (NSCLC) cells, were subcutaneously injected to the back of the nude mice. When the developing xenografts reached 100 mm^3 size, the inflicted animals were divided into three groups, 10 mice in each group. One group received daily intraperitoneal injection of the solvent 1% Tween 80. This solvent/emulsifier is biocompatible and is approved for pharmaceutical applications in humans. The second group received daily intraperitoneal injection of 25 mg/kg E260 dissolved in 1% Tween 80, and the third group got daily intraperitoneal injection of 25 mg/kg, E266 dissolved in the 1% Tween 80, solvent. The progression of the elicited xenografts was monitored by measuring twice a week the volumes of the developing tumors.

[4] = system: metastatic adenocarcinoma PC3 prostate Cancer cells; assay: viability / killing of PC3 cells; assay type: cell-based; conditions: E266 versus E260; compound (I) as tartarate salt in 0.5% Tween-80; FIG. 6
Description: as §1, §2

[5] = system: metastatic Triple negative MDA-MB-231 Breast cancer cells; assay: viability / killing of MDA-MB-231 cells; assay type: cell-based; conditions: E266 versus E260; compound (I) as tartarate salt in 0.5% Tween-80; FIG. 5
Description: as §1, §2

In the case of `CC(C)c1ccc(-c2cn3nc(N4CCC(CN5CCN(C)CC5)CC4)sc3n2)cc1` [Compound E260, reference compound], the “killing metastatic pancreatic ductal adenocarcinoma Su.86.86 cancer cells” value [1] was “comparable activity”, the “killing metastatic colon cancer SW620 cells” value [2] was “comparable activity” and the “solubility (insolubility level)” value [3] was “insoluble”. The “effect on normal Epithelial cells” value (normal Epithelial cells) was “no effect”, the “progression of the developing tumors (xenograft volume)” value (H358 derived xenografts) was “failed to do so” and the “killing metastatic adenocarcinoma PC3 prostate Cancer cells” value [4] was “comparable activity”. The “killing metastatic Triple negative MDA-MB-231 Breast cancer cells” value [5] was “comparable activity”.
